# Assay: Inhibition of hypoxia-induced HIF1alpha protein accumulation in human Hep3B cells treated for 30 mins measured after 12 hrs by Western blot analysis
row,IC50,Structure (SMILES)
1,5.88 µM,COc1c(O)cc2oc(-c3cc(O)cc(O)c3)cc2c1CC(=O)C(C)C [Moracin Q]
2,0.00065 µM,CC1(C)Oc2cc3oc(-c4cc(O)cc(O)c4)cc3cc2C[C@H]1O [(-)-Moracin P]
3,2.6 µM,CC1=C[C@H]2c3c(O)cc(-c4cc5ccc(O)cc5o4)cc3O[C@@]3(c4ccc(O)cc4O)Oc4cc(O)ccc4[C@H](C1)[C@@H]23 [CHEBI:2544]
4,> 50 µM,Oc1cc(O)cc(-c2cc3ccc(O)cc3o2)c1 [moracin M]
5,0.00014 µM,CC(C)(O)C1Cc2cc3cc(-c4cc(O)cc(O)c4)oc3cc2O1 (stereo unspecified) [moracin O]
6,1.26 µM,CC(C)=CC[C@]12Oc3cc(O)c([C@H]4C=C(C)C[C@H](c5ccc(O)cc5O)[C@H]4C(=O)c4ccc(O)cc4O)c(O)c3C(=O)[C@@]1(O)Oc1cc(O)ccc12 [sanggenon C]
7,4.05 µM,CC(C)=CCC/C(C)=C/Cc1c(O)ccc2cc(-c3cc(O)cc(O)c3CC=C(C)C)oc12 [mulberrofuran D]
8,0.14 µM,C[C@@]12C=C(c3c(O)cc(-c4cc5ccc(O)cc5o4)cc3O)C[C@@H](C1)c1ccc(O)cc1O2 [Mulberrofuran H]
9,3.51 µM,CC(C)=CCC/C(C)=C/Cc1c(O)cc(O)cc1-c1cc2ccc(O)cc2o1 [albafuran A]
10,3.62 µM,CC(C)=CCC/C(C)=C\CC/C(C)=C\Cc1c(O)cc(O)cc1-c1cc2ccc(O)cc2o1 [mulberrofuran W]
11,1.03 µM,CC(C)=CC[C@@]12Oc3cc(O)c([C@H]4C=C(C)C[C@H](c5ccc(O)cc5O)[C@H]4C(=O)c4ccc(O)cc4O)c(O)c3C(=O)[C@]1(O)Oc1cc(O)ccc12 [Sanggenon O]

# Reference: BindingDB's records for doi:10.1021/np800491u (Korean Research Institute of Biosciences and Biotechnology, 2009)
